Target: T1, human recombinant PDE9 protein (Homo sapiens, UniProt O76083)
T1 construct: His-tag (inferred from the Ni column purification; a myc His-tag vector is named only for the HEK293 expression check); made in house; host or cells: silkworm (pYNG vector, Katakura Industries)
Assay: PDE9 inhibitory activity test (measurement of PDE9 inhibitory action, [3H]-cGMP)
Format: biochemical
Details: PDE9 IC50, human recombinant PDE9, 30° C., 10 min
Description: 1) Preparation of a Human Recombinant PDE9 Protein
An hsPDE9A 1cDNA fragment was amplified by being based on a base sequence (Accession No.: AF048837) of the hsPDE9A1 registered on GenBank data base, and by using the following sequences (Hokkaido System Science Co., Ltd.) as a primer and Human hippocampus cDNA library (Clontech Laboratories, Inc.) as a template DNA, and using Pfu50 DNA polymerase (Invitrogen Corp.), and by a polymerase chain reaction (PCR) of the following condition.
The condition of PCR: [96° C., 5 min]×1 cycle, [(96° C., 10 sec), (57° C., 5 sec), (72° C., 2 min)]×30 cycles
The obtained hsPDE9A 1 cDNA fragment was incorporated in a TOPO-TA cloning vector (Invitrogen Corp.), and the base sequence was checked; and thereafter, the resultant was transfected in a pcDNA 3.1/myc His-tag vector (Invitrogen Corp.) to thereby make a human PDE9 expression vector for mammal cells. The human PDE9 expression vector for mammal cells was transfected with transient expression to an HEK293 cell by using a LIPOFETAMINE 2000 Reagent (Gibco). It was confirmed by Western blot method that the PDE9A expressed in the HEK293 cell, and then, the human PDE9A 1cDNA fragment was transfected in a pYNG vector (Katakura Industries Co., Ltd.) to thereby make an expression vector for insect cells. A supernatant of homogenized silk worm in which a large amount of PDE9 was expressed was purified by an equilibrated Ni column using a buffer A (20 mmol/L Tris-HCl, pH: 8.0, 1 mmol/L DTT, 10 mmol/L imidazole). After 1 hour of mixing of the supernatant and the Ni column, cleaning was carried out using a buffer B (20 mmol/L Tris-HCl, pH: 8.0, 1 mmol/L […]), and elution was carried out using a buffer C (20 mmol/L Tris-HCl, pH: 8.0, 1 mmol/L DTT, 100 mmol/L imidazole). An elution fraction was preparatively collected to thereby obtain a PDE9 enzyme solution.
2) Measurement of PDE9 Inhibitory Action
To 100 μL of a buffer D (40 mmol/L Tris-HCl, pH: 7.4, 10 mmol/L MgCl2, 1 mM DTT, 2 μM cGMP) solution containing [^3H]-cGMP ([…]/mL), 10 μL of a compound solution for evaluation (a solution in which a compound was dissolved in DMSO and diluted so that the DMSO concentration became 5%) and 90 μL of a solution prepared by diluting the PDE9 enzyme solution prepared in the above with a buffer E (40 mmol/L Tris-HCl, pH: 7.4, 10 mmol/L MgCl2, 1 mM DTT, 1 mmol/L EGTA) were added under ice cooling. The resultant mixed solution was incubated at 30° C. for 10 min, and thereafter heated for 2 min in boiled water to stop the enzyme reaction of the PDE9. Then, the resultant was returned to room temperature; 50 μL of 5′-Nucleotidase (Biomol GmbH, 10 units/mL) was added thereto; and the resultant was incubated at 30° C. for 10 min to thereby convert [^3H]-5′-GMP formed in the previous reaction to [^3H]-guanosine. 500 μL of an anion exchange resin (Bio-Rad AG1-X2 resin, mesh size: 200-400, H2O:resin=2:1) was added to the resultant reaction liquid, and allowed to stand for 10 min, and thereafter centrifuged (2,000 rpm, 10 min); and a supernatant in which the [^3H]-guanosine was present was transferred to a LumaPlate (PerkinElmer, Inc.), and the radioactivity was measured by a TopCount NXT microplate scintillation and luminescence counter (PerkinElmer, Inc.).
The inhibition percentage of the evaluation compound was calculated using the following expression, taking the radioactivity of a control containing no evaluation compound to be (A), the radioactivity of a blank containing no enzyme to be (B), and the radioactivity of the evaluation compound to be (C). Inhibition percentage=100−{[(C)−(B)]/[(A)−(B)]}×100(%)
The IC50 value for PDE9 of the evaluation compound was determined from inhibition percentage for various concentrations.

T1 sequence (O76083 whole entry): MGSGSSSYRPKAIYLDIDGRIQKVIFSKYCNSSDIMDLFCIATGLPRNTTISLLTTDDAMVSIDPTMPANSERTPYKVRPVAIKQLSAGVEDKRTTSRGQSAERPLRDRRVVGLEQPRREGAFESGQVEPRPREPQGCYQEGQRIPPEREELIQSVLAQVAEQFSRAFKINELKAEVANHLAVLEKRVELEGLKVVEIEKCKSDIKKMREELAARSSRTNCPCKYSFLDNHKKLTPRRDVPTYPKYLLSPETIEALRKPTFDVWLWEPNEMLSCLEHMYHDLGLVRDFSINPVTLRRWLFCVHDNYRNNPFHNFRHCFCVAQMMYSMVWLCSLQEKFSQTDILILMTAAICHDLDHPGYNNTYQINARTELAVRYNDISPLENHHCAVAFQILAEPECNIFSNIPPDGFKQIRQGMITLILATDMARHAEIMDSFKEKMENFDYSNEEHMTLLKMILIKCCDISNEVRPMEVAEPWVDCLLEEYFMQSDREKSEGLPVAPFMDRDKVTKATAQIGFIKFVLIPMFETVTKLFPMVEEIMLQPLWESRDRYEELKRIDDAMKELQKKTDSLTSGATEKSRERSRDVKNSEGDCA

| Compound | IC50 [nM] |
| --- | --- |
| COc1ncc(C)c(-c2ccc3c(c2)[nH]c(=O)c2cnn(C4CCCOCC4)c23)c1C (single isomer, unassigned; (-)) [41 (−), (−)-7-(2-methoxy-3,5-dimethylpyridin-4-yl)-1-(oxepan-4-yl)-1H-pyrazolo[4,3-c]quinolin-4(5H)-one] | 12.1 |
| COc1ncc(C)c(-c2ccc3c(c2)[nH]c(=O)c2cnn(C4CCCOC4)c23)c1C (single isomer, unassigned) [36 (−)] | 8.1 |
| COc1nccc(C)c1-c1ccc2c(c1)[nH]c(=O)c1cnn(C3CCCOC3)c12 (single isomer, unassigned) [39 (+)] | 5.07 |
| COc1ncc(C)c(-c2ccc3c(c2)[nH]c(=O)c2cnn(C4CCCOCC4)c23)c1C (single isomer, unassigned; (+)) [41 (+), (+)-7-(2-methoxy-3,5-dimethylpyridin-4-yl)-1-(oxepan-4-yl)-1H-pyrazolo[4,3-c]quinolin-4(5H)-one] | 5.91 |
| COc1nc(C)cc(C)c1-c1ccc2c(c1)[nH]c(=O)c1cnn(C3CCCOC3)c12 (single isomer, unassigned; (-)) [34 (−), (−)-7-(2-methoxy-4,6-dimethylpyridin-3-yl)-1-(tetrahydro-2H-pyran-3-yl)-1H-pyrazolo[4,3-c]quinolin-4(5H)-one] | 3.36 |
| COc1cc(C)c(-c2ccc3c(c2)[nH]c(=O)c2cnn(C4CCCOC4)c23)c(CF)n1 (single isomer, unassigned) [38 (−)] | 12.4 |
| COc1nc(CF)cc(C)c1-c1ccc2c(c1)[nH]c(=O)c1cnn(C3CCCOC3)c12 (single isomer, unassigned) [35 (+)] | 2.62 |
| COc1nccc(C)c1-c1ccc2c(c1)[nH]c(=O)c1cnn(C3CCCOC3)c12 (single isomer, unassigned) [39 (−)] | 4.08 |
| COc1ncc(C)c(-c2ccc3c(c2)[nH]c(=O)c2cnn([C@H]4CCOC4)c23)c1C [25 (−)S] | 9.43 |
| COc1nc(C)cc(C)c1-c1ccc2c(c1)[nH]c(=O)c1cnn(C3CCCOC3)c12 (single isomer, unassigned; (+)) [34 (+), (+)-7-(2-methoxy-4,6-dimethylpyridin-3-yl)-1-(tetrahydro-2H-pyran-3-yl)-1H-pyrazolo[4,3-c]quinolin-4(5H)-one] | 3.88 |
| COc1cc(C)c(-c2ccc3c(c2)[nH]c(=O)c2cnn(C4CCOC4)c23)c(C)n1 (single isomer, unassigned) [29 (+)] | 137 |
| COc1cc(C)c(-c2ccc3c(c2)[nH]c(=O)c2cnn(C4CCCOC4)c23)c(C)n1 (single isomer, unassigned) [37 (−)] | 10.1 |
| COc1nc(CF)cc(C)c1-c1ccc2c(c1)[nH]c(=O)c1cnn(C3CCOC3)c12 (single isomer, unassigned) [31 (−)] | 7.42 |
| COc1cc(C)c(-c2ccc3c(c2)[nH]c(=O)c2cnn(C4CCCOC4)c23)c(C)n1 (single isomer, unassigned) [37 (+)] | 10.9 |
| COc1nccc(C)c1-c1ccc2c(c1)[nH]c(=O)c1cnn(C3CCOC3)c12 (single isomer, unassigned) [32 (+)] | 70.7 |
| COc1nc(C)cc(C)c1-c1ccc2c(c1)[nH]c(=O)c1cnn(C3CCOC3)c12 (single isomer, unassigned) [28 (+)] | 29.6 |
| COc1nc(CF)cc(C)c1-c1ccc2c(c1)[nH]c(=O)c1cnn(C3CCOC3)c12 (single isomer, unassigned) [31 (+)] | 20.1 |

The remaining lines, values ahead:

| IC50 [nM] | Compound |
| --- | --- |
| 21.7 | Cc1cc(Cl)c(-c2ccc3c(c2)[nH]c(=O)c2cnn(C4CCOCC4)c23)c(C)n1 [Example 9] |
| 6.32 | Cc1cc(C(F)F)nc(C)c1-c1ccc2c(c1)[nH]c(=O)c1cnn(C3CCOCC3)c12 [Example 16] |
| 77.5 | COc1ncc(C)c(-c2ccc3c(c2)[nH]c(=O)c2cnn([C@@H]4COC[C@H]4OC)c23)c1C (racemic) [Example 61, 7-(2-methoxy-3,5-dimethylpyridin-4-yl)-1-[(3RS,4SR)-4-methoxytetrahydrofuran-3-yl]-1H-pyrazolo[4,3-c]quinolin-4(5H)-one] |
| 22 | COc1cc(C)c(-c2ccc3c(c2)[nH]c(=O)c2cnn(C4CCCOCC4)c23)c(C)c1 (single isomer, unassigned) [42 (−)] |
| 9.51 | CCOc1nccc(C)c1-c1ccc2c(c1)[nH]c(=O)c1cnn(C3CCOCC3)c12 [Example 23, 7-(2-ethoxy-4-methylpyridin-3-yl)-1-(tetrahydro-2H-pyran-4-yl)-1H-pyrazolo[4,3-c]quinolin-4(5H)-one] |
| 5.67 | COc1nccc(C)c1-c1ccc2c(c1)[nH]c(=O)c1cnn(C3COCCOC3)c12 [Example 47] |
| 21.2 | COc1nc(C)c(-c2ccc3c(c2)[nH]c(=O)c2cnn(C4CCOCC4)c23)c(OC)n1 [Example 14] |
| 11.3 | COc1nc(C)c(Cl)c(C)c1-c1ccc2c(c1)[nH]c(=O)c1cnn(C3CCOCC3)c12 [Example 11] |
| 20.8 | COc1ncc(Cl)c(C)c1-c1ccc2c(c1)[nH]c(=O)c1cnn(C3CCOCC3)c12 [Example 10] |
| 71.5 | COc1cc(C)c(-c2cc3[nH]c(=O)c4cnn([C@@H]5CCOC5)c4c3cc2F)c(C)n1 [Example 59] |
| 13 | Cc1cc(CF)nc(C)c1-c1ccc2c(c1)[nH]c(=O)c1cnn(C3CCOCC3)c12 [Example 19] |
| 10.1 | CCc1c(OC)ncc(C)c1-c1ccc2c(c1)[nH]c(=O)c1cnn([C@H]3CCOC3)c12 [Example 56, (S)-7-(3-ethyl-2-methoxy-5-methylpyridin-4-yl)-1-(tetrahydrofuran-3-yl)-1H-pyrazolo[4,3-c]quinolin-4(5H)-one] |
| 4.77 | COc1nc(C)cc(C)c1-c1cc2[nH]c(=O)c3cnn(C4CCOCC4)c3c2cc1F [Example 52, 8-fluoro-7-(2-methoxy-4,6-dimethylpyridin-3-yl)-1-(tetrahydro-2H-pyran-4-yl)-1H-pyrazolo[4,3-c]quinolin-4(5H)-one] |
| 36.7 | Cc1cc(C#N)nc(C)c1-c1ccc2c(c1)[nH]c(=O)c1cnn(C3CCOCC3)c12 [Example 13] |
| 8.35 | Cc1cnc(OC(C)C)c(C)c1-c1ccc2c(c1)[nH]c(=O)c1cnn([C@H]3CCOC3)c12 [Example 48, (S)-7-(2-isopropyloxy-3,5-dimethylpyridin-4-yl)-1-(tetrahydrofuran-3-yl)-1H-pyrazolo[4,3-c]quinolin-4(5H)-one] |
| 24.3 | Cc1cccc(C)c1-c1ccc2c(c1)[nH]c(=O)c1cnn(C3CCOCC3)c12 [Example 1, 7-(2,6-dimethylphenyl)-1-(tetrahydro-2H-pyran-4-yl)-1H-pyrazolo[4,3-c]quinolin-4(5H)-one] |
| 8.81 | COc1cc(C)c(-c2ccc3c(c2)[nH]c(=O)c2cnn(C4CCCOCC4)c23)c(C)c1 (single isomer, unassigned) [42 (+)] |
| 6.51 | CCOc1ncc(C)c(-c2ccc3c(c2)[nH]c(=O)c2cnn([C@H]4CCOC4)c23)c1C [Example 50] |
| 11.7 | COc1nc(C)cc(C)c1-c1cc2[nH]c(=O)c3cnn([C@@H]4CCOC4)c3c2cc1F [Example 58] |
| 3.33 | COc1nc(C)cc(C)c1-c1ccc2c(c1)[nH]c(=O)c1cnn(C3COCCOC3)c12 [Example 45, 1-(1,4-dioxepan-6-yl)-7-(2-methoxy-4,6-dimethylpyridin-3-yl)-1H-pyrazolo[4,3-c]quinolin-4(5H)-one] |
| 12.2 | Cc1cnc(OC(F)F)c(C)c1-c1ccc2c(c1)[nH]c(=O)c1cnn([C@H]3CCOC3)c12 [Example 49] |

— US8563565B2, “Pyrazoloquinoline derivatives” (Eisai R&D Management Co., Ltd., priority 2011, dated 2013)
